# Source: PMC4490944 (Journal of immunology (Baltimore, Md. : 1950), 2015)
# Legend:
# MHC II = conditions: as previously reported; cited from earlier work
# [1] = biological target: HLA-DR1 (DR1) (DRA*0101/DRB1*010101) (Homo sapiens, UniProt P01903+P01911, A100R/D57E/F55L/F60I/F76Y/I96L/L162R/M171V/P40L/Q125E/R42F/V115G/Y59C); experiment: Numerical modeling; type: binding; conditions: Scheme V
substance,measurement,setting,value
Ac-PRFVKQNTLRLAT [HA],intrinsic and DM-catalyzed dissociation half-life,MHC II,~ 100 hours
same,k-3 (values that could produce the same fits),[1]; bound for same fit,less than 1×10^−4
same,k-6 (values that could produce the same fits),[1]; bound for same fit,less than 1×10^−4
same,k-7 (values that could produce the same fits),[1]; bound for same fit,less than 1×10^−4
same,k5,"[1]; best fit value, DM-MHC resolves into inactive MHC II in the absence of peptides, kept the same for HA and CLIP, 0.4 μM DR1, 0.4 μM DM",0.36 min⁻¹
